In ChEMBL document CHEMBL1128601, “Development of a novel series of trialkoxyaryl derivatives as specific and competitive antagonists of platelet activating factor” (J Med Chem, 1995):

Tests used:
Oryctolagus cuniculus [1] = organism: Oryctolagus cuniculus; test: Activity against adenosine diphosphate (ADP) induced platelet aggregation
[2] = test system: Platelet-activating factor receptor (Oryctolagus cuniculus); test: Competitive inhibition of PAF-induced platelet aggregation was measured as IC50 ratio is (1000 x the IC50 of the test compound divided by the IC50 of a standard)
Oryctolagus cuniculus [3] = organism: Oryctolagus cuniculus; test: Activity against U-46,619 induced platelet aggregation; no effect at 20 uM; format: functional
Oryctolagus cuniculus [4] = organism: Oryctolagus cuniculus; test: Competitive inhibition of PAF-induced platelet aggregation was measured as IC50 ratio = [1000 x the IC50 of the test compound divided by the IC50 of a standard (3)]; format: functional

| Structure (SMILES) | IC50 (Oryctolagus cuniculus [1]) | IC50 ratio [2] | IC50 (Oryctolagus cuniculus [3]) | IC50 ratio (Oryctolagus cuniculus [4]) |
| --- | --- | --- | --- | --- |
| CCCCCCOc1c(OC)cc(C=CCCCC[N+](C)(C)C)cc1OC.[I-] | Not Active | 200 |  |  |
| COc1cc(C(=O)OCCCC[N+](C)(C)C)cc(OC)c1OCc1ccccc1.[I-] | Not Active | 533 |  |  |
| CCCCCCOc1c(OC)cc(C(=O)OCCCC[n+]2ccsc2)cc1OC |  | 48 |  |  |
| CCCCCCOc1c(OC)cc(C(=O)OCc2ccccc2C[N+](C)(C)C)cc1OC |  | 144 |  |  |
| COc1cc(C(=O)OCCCC[N+](C)(C)C)cc(OC)c1OCC1CCCCC1.[I-] |  | 443 | Not Active |  |
| CCCCCCOc1c(OC)cc(C(=O)OCCc2scnc2C)cc1OC |  | 116 |  |  |
| CCCCOc1c(OC)cc(C(=O)OCC[N+](C)(C)C)cc1OC.[I-] | Not Active | 3370 |  |  |
| COc1cc(C(=O)OCC[N+](C)(C)C)cc(OC)c1OC.[I-] |  |  |  | 15000 |
| CCCCCCOc1c(OC)cc(/C=C/CCCC[N+](C)(C)C)cc1OC.[I-] | Not Active | 133 |  |  |
| CCCCCCOc1c(OC)cc(C(=O)OCCCC[n+]2ccccc2)cc1OC.[I-] | Not Active | 107 |  |  |
| CCCCCCOc1c(OC)cc(C(=O)OCCCC[n+]2cccc3ccccc32)cc1OC.[Cl-] | Not Active | 57.3 |  |  |
| CCCCCCOc1c(OC)cc(C(=O)Oc2ccc3c(ccc[n+]3C)c2)cc1OC |  | 13 |  |  |
| CCCCCCOc1c(OC)cc(C(=O)Oc2cccc3ccc[n+](C)c23)cc1OC.[I-] | Not Active | 11.7 |  |  |
| COc1cc(C(=O)OCCCC[N+](C)(C)C)cc(OC)c1OCCC1CCCC1 |  | 203 |  |  |
| CCCCCCOc1c(OC)cc(CCCCc2scnc2C)cc1OC |  | 14.7 |  |  |
| CCCCCCOc1c(OC)cc(CCCCCC[N+](C)(C)C)cc1OC |  | 65 |  |  |
| CCCCCCOc1c(OC)cc(C(=O)OCCc2sc[n+](C)c2C)cc1OC.[I-] | Not Active | 114 |  |  |
| CCCCCCOc1c(OC)cc(C(=O)Oc2ccccc2CC[N+](C)(C)C)cc1OC |  | 507 |  |  |

Other lines, results leading:

| IC50 (Oryctolagus cuniculus [1]) | IC50 ratio [2] | IC50 (Oryctolagus cuniculus [3]) | IC50 ratio (Oryctolagus cuniculus [4]) | Structure (SMILES) |
| --- | --- | --- | --- | --- |
|  | 820 |  |  | CCCCCCOc1c(OC)cc(CC(=O)OCCC[N+](C)(C)C)cc1OC |
| Not Active | 115 |  |  | CCCCCCOc1c(OC)cc(C(=O)OCCCC[N+](CC)(CC)CC)cc1OC.[I-] |
|  | 1400 |  |  | CCCCCCOc1ccc(C(=O)OCCCC[N+](C)(C)C)cc1 |
| Not Active | 199 |  |  | CCCCCCCOc1c(OC)cc(C(=O)OCCCC[N+](C)(C)C)cc1OC.[I-] |
|  | 263 |  |  | CCCCCCOc1c(Cl)cc(C(=O)OCCCC[N+](C)(C)C)cc1OC |
| Not Active | 7000 |  |  | CCCCCCOc1c(OC)cc(C(=O)OCCC[N+](C)(C)C)cc1OC.[I-] |
|  | 265 |  |  | CCCCCCOc1c(C)cc(C(=O)OCCCC[N+](C)(C)C)cc1C |
| Not Active | 1000 |  |  | CCCCCCOc1c(OC)cc(C(=O)OCC[N+](C)(C)C)cc1OC.[I-] |
| Not Active | 1740 |  |  | CCCCCCOc1ccc(C(=O)OCCCC[N+](C)(C)C)cc1OC.[I-] |
|  | 153 |  |  | CCCCCCCCCCOc1c(OC)cc(C(=O)OCC[N+](C)(C)C)cc1OC |
| Not Active | 540 |  |  | CCCCCOc1c(OC)cc(C(=O)OCCCC[N+](C)(C)C)cc1OC.[I-] |
|  | 103 |  |  | CCCCCCCCOc1c(OC)cc(C(=O)OCCCC[N+](C)(C)C)cc1OC |
| Not Active | 164 |  |  | CCCCCCOc1c(OC)cc(C(=O)OCCCC[N+](C)(C)C)cc1OC.[I-] |
| Not Active | 1500 |  |  | CCCCCCOc1c(OC)cc(C(=O)OCCCCN(C)C)cc1OC |
| Not Active | 833 |  |  | CCCCCCOc1c(OC)cc(OC(=O)CCCC[N+](C)(C)C)cc1OC.[I-] |
|  | 35 |  |  | CCCCCCCCCCCCCCCCOc1c(OC)cc(C(=O)OCCCC[N+](C)(C)C)cc1OC |
|  | 270 |  |  | CCCCCCOc1c(OC)cc(C(=O)OCCCCCC[N+](C)(C)C)cc1OC |
